Patent US4070401A, “Method for the preparation of a halogenated aromatic amine” (Mitsui Toatsu Chemicals Inc., priority 1972, dated 1978)

Test: Dissociation constant pKb of the amine additive (Table 1)
Assay type: physicochemical
Conditions: measured at 25° C
Text: The inventors have conducted an extensive study on suppression or inhibition of halogenation reaction which would occur during preparation of a halogenated aromatic amine. As a result, the inventors discovered that when a halogenated aromatic nitro compound is hydrogenated in the presence of a predetermined amount of a platinum catalyst together with an amine selected from the group consisting of an alkylmonoamine, an alicyclic amine and a polyalkylenepolyamine, the dehalogenation may be suppressed to a minimum. The present invention has been completed on the basis of this discovery. The alkylmonoamine, alicyclic amine and polyalkylenepolyamine have common properties that they are an organic nitrogen-containing base having a dissociation constant pKb lower than 4.2. The dissociation constant herein described means that which is defined according to the dissociation equilibrium of the usual acid or base, i.e., when an organic nitrogen-containing base is expressed by RN, the dissociation equilibrium of RN is expressed by a formula
RN + H2 O .revreaction. RNH^+ + OH^-
and the dissociation constant is defined as follows [formula] where [ ]means activity.
Though the dissociation constant pKb is generally more or less varied with temperature, the pKb value is measured at 25° C herein.

| SMILES | Dissociation Constant pKb |
| --- | --- |
| CC(C)N [isopropylamine] | 3.4 |
| CN [methylamine] | 3.4 |
